According to patent publication US6358885B1, “Substituted phenylheterocyclic herbicides” (Mississippi State University, priority 1992, dated 2002):

How the values were obtained:
duck salad = assay: Test C flood test plant response rating 0 to 100; assay type: in vivo, Heteranthera limosa
Method in brief: (§1)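 Compounds in non-phytotoxic solvent went onto sandy loam before emergence (seeded one day earlier) or onto plants at the one-to-four leaf stage. Duck salad was treated via flood water (~2.5 cm, maintained) over silt loam.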

chickweed [1] = assay: Test B preemergence/postemergence greenhouse plant response rating 0 to 10; assay type: in vivo, Stellaria media; conditions: 0 to 10 scale
Method in brief: (§2)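 Test chemicals, dissolved in a non-phytotoxic solvent, were applied to soil at planting and, at the same time, over foliage of seedlings at the one to four leaf stage.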

sorghum = assay: as above; assay type: in vivo, Sorghum bicolor; conditions: 0 to 10 scale
Method in brief: as §2

rice = assay: Test C flood test plant response rating 0 to 100; assay type: in vivo, Oryza sativa
Method in brief: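 Compounds in non-phytotoxic solvent applied preemergence to sandy loam one day after planting, postemergence at the 1–4 leaf stage, or to ~2.5 cm floodwater over silt loam.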

bedstraw = assay: Test C preemergence/postemergence greenhouse plant response rating 0 to 100; assay type: in vivo, Galium aparine; conditions: for Plant response rating, Bedstraw: 62 g/ha, 0 to 100 scale
Method in brief: as §1

downy brome = assay: as above; assay type: in vivo, Bromus tectorum; conditions: for Plant response rating Downy Brome: 62 g/ha, 0 to 100 scale
Method in brief: as §1

chickweed [2] = assay: as above; assay type: in vivo, Stellaria media; conditions: POSTEMERGENCE
Method in brief: as §1

crabgrass [3] = assay: Test B preemergence/postemergence greenhouse plant response rating 0 to 10; assay type: in vivo, Digitaria spp.; conditions: 0 to 10 scale
Method in brief: as §2

barley = assay: as above; assay type: in vivo, Hordeum vulgare; conditions: 0 to 10 scale
Method in brief: as §2

giant foxtail [4] = assay: as above; assay type: in vivo, Setaria faberii; conditions: 0 to 10 scale
Method in brief: as §2

wild buckwheat = assay: Test C preemergence/postemergence greenhouse plant response rating 0 to 100; assay type: in vivo, Polygonum convolvulus
Method in brief: as §1

corn = assay: Test B preemergence/postemergence greenhouse plant response rating 0 to 10; assay type: in vivo, Zea mays; conditions: 0 to 10 scale
Method in brief: as §2

crabgrass [5] = assay: Test C preemergence/postemergence greenhouse plant response rating 0 to 100; assay type: in vivo, Digitaria sanguinalis; conditions: for Plant response rating, Crabgrass: 62 g/ha, 0 to 100 scale
Method in brief: as §1

barnyardgrass = assay: Test B preemergence/postemergence greenhouse plant response rating 0 to 10; assay type: in vivo, Echinochloa crus-galli; conditions: 0 to 10 scale
Method in brief: as §2

giant foxtail [6] = assay: Test C preemergence/postemergence greenhouse plant response rating 0 to 100; assay type: in vivo, Setaria faberii; conditions: for Plant response rating, Giant foxtail: 62 g/ha, 0 to 100 scale
Method in brief: as §1

rape = assay: Test B preemergence/postemergence greenhouse plant response rating 0 to 10; assay type: in vivo, Brassica napus; conditions: 0 to 10 scale
Method in brief: as §2

wheat = assay: as above; assay type: in vivo, Triticum aestivum; conditions: 0 to 10 scale
Method in brief: as §2

wild oat = assay: Test C preemergence/postemergence greenhouse plant response rating 0 to 100; assay type: in vivo, Avena fatua
Method in brief: as §1

[7] = POSTEMERGENCE section, flood test, Rate 1 g/ha
[8] = POSTEMERGENCE section, flood test, Rate 4 g/ha
[9] = Rate 16 g/ha, under POSTEMERGENCE head (flood test species)
[10] = flood test species listed under POSTEMERGENCE, 62 g/ha, 0 to 100 scale
[11] = POSTEMERGENCE, 62 g/ha, 0 to 100 scale

CC(C)Oc1cc(-c2nn3c(c2Br)CCCC3)c(F)cc1Cl [Compound 38]
Plant response rating (0 to 100), Duck salad (duck salad; [7]): 0
Plant response rating (0 to 100), Duck salad (duck salad; [8]): 0
Plant response rating (0 to 100), Duck salad (duck salad; [9]): 20
Plant response rating Duck salad (duck salad; [10]): 50
Plant response rating, Chickweed (chickweed [1]; POSTEMERGENCE, Rate 50 g/ha): 9
Plant response rating, Chickweed (chickweed [1]; POSTEMERGENCE, Rate 200 g/ha): 10
Plant response rating, Chickweed (chickweed [1]; PREEMERGENCE, Rate 50 g/ha): 0
Plant response rating, Chickweed (chickweed [1]; Rate 200 g/ha, PREEMERGENCE): 0
Plant response rating, Sorghum (sorghum; POSTEMERGENCE, Rate 50 g/ha): 5
Plant response rating, Sorghum (sorghum; PREEMERGENCE, Rate 50 g/ha): 0
Plant response rating, Sorghum (sorghum; Rate 200 g/ha, POSTEMERGENCE): 6
Plant response rating, Sorghum (sorghum; Rate 200 g/ha, PREEMERGENCE): 1
Plant response rating (0 to 100), Rice Japonica (rice; [7]): 0
Plant response rating (0 to 100), Rice Japonica (rice; [8]): 10
Plant response rating (0 to 100), Rice Japonica (rice; [9]): 10
Plant response rating Rice Japonica (rice; [10]): 30
Plant response rating, Bedstraw (bedstraw; POSTEMERGENCE): 90
Plant response rating (0 to 100), Bedstraw (bedstraw; POSTEMERGENCE, Rate 1 g/ha): 20
Plant response rating, Bedstraw (bedstraw; PREEMERGENCE): 50
Plant response rating (0 to 100), Bedstraw (bedstraw; PREEMERGENCE, Rate 1 g/ha): 0
Plant response rating (0 to 100), Bedstraw (bedstraw; PREEMERGENCE, Rate 4 g/ha): 0
Plant response rating (0 to 100), Bedstraw (bedstraw; Rate 4 g/ha, POSTEMERGENCE): 50
Plant response rating (0 to 100), Bedstraw (bedstraw; Rate 16 g/ha, POSTEMERGENCE): 50
Plant response rating (0 to 100), Bedstraw (bedstraw; Rate 16 g/ha, PREEMERGENCE): 20
Plant response rating Downy Brome (downy brome; POSTEMERGENCE): 40
Plant response rating (0 to 100), Downy Brome (downy brome; POSTEMERGENCE, Rate 1 g/ha): 10
Plant response rating (0 to 100), Downy Brome (downy brome; POSTEMERGENCE, Rate 4 g/ha): 20
Plant response rating Downy Brome (downy brome; PREEMERGENCE): 0
Plant response rating (0 to 100), Downy Brome (downy brome; PREEMERGENCE, Rate 1 g/ha): 0
Plant response rating (0 to 100), Downy Brome (downy brome; PREEMERGENCE, Rate 4 g/ha): 0
Plant response rating (0 to 100), Downy Brome (downy brome; Rate 16 g/ha, POSTEMERGENCE): 30
Plant response rating (0 to 100), Downy Brome (downy brome; Rate 16 g/ha, PREEMERGENCE): 0
Plant response rating, Chickweed (chickweed [2]; 62 g/ha, 0 to 100 scale): 30
Plant response rating (0 to 100), Chickweed (chickweed [2]; Rate 1 g/ha): 0
Plant response rating (0 to 100), Chickweed (chickweed [2]; Rate 4 g/ha): 10
Plant response rating (0 to 100), Chickweed (chickweed [2]; Rate 16 g/ha): 20
Plant response rating, Crabgrass (crabgrass [3]; POSTEMERGENCE, Rate 50 g/ha): 5
Plant response rating, Crabgrass (crabgrass [3]; POSTEMERGENCE, Rate 200 g/ha): 6
Plant response rating, Crabgrass (crabgrass [3]; PREEMERGENCE, Rate 50 g/ha): 0
Plant response rating, Crabgrass (crabgrass [3]; Rate 200 g/ha, PREEMERGENCE): 8
Plant response rating, Barley (barley; POSTEMERGENCE, Rate 50 g/ha): 4
Plant response rating, Barley (barley; POSTEMERGENCE, Rate 200 g/ha): 6
Plant response rating, Barley (barley; PREEMERGENCE, Rate 50 g/ha): 0
Plant response rating, Barley (barley; Rate 200 g/ha, PREEMERGENCE): 1
Plant response rating, Giant foxtail (giant foxtail [4]; POSTEMERGENCE, Rate 50 g/ha): 5
Plant response rating, Giant foxtail (giant foxtail [4]; PREEMERGENCE, Rate 50 g/ha): 2
Plant response rating, Giant foxtail (giant foxtail [4]; Rate 200 g/ha, POSTEMERGENCE): 7
Plant response rating, Giant foxtail (giant foxtail [4]; Rate 200 g/ha, PREEMERGENCE): 9
Plant response rating, Wild buckwheat (wild buckwheat; [11]): 100
Plant response rating (0 to 100), Wild buckwheat (wild buckwheat; POSTEMERGENCE, Rate 1 g/ha): 40
Plant response rating (0 to 100), Wild buckwheat (wild buckwheat; POSTEMERGENCE, Rate 4 g/ha): 100
Plant response rating (0 to 100), Wild buckwheat (wild buckwheat; PREEMERGENCE, Rate 1 g/ha): 0
Plant response rating (0 to 100), Wild buckwheat (wild buckwheat; PREEMERGENCE, Rate 4 g/ha): 0
Plant response rating (0 to 100), Wild buckwheat (wild buckwheat; Rate 16 g/ha, POSTEMERGENCE): 100
Plant response rating (0 to 100), Wild buckwheat (wild buckwheat; Rate 16 g/ha, PREEMERGENCE): 20
Plant response rating, Corn (corn; POSTEMERGENCE, Rate 50 g/ha): 4
Plant response rating, Corn (corn; POSTEMERGENCE, Rate 200 g/ha): 5
Plant response rating, Corn (corn; PREEMERGENCE, Rate 50 g/ha): 0
Plant response rating, Corn (corn; Rate 200 g/ha, PREEMERGENCE): 2
Plant response rating, Crabgrass (crabgrass [5]; POSTEMERGENCE): 40
Plant response rating (0 to 100), Crabgrass (crabgrass [5]; POSTEMERGENCE, Rate 1 g/ha): 10
Plant response rating (0 to 100), Crabgrass (crabgrass [5]; POSTEMERGENCE, Rate 4 g/ha): 20
Plant response rating, Crabgrass (crabgrass [5]; PREEMERGENCE): 30
Plant response rating (0 to 100), Crabgrass (crabgrass [5]; PREEMERGENCE, Rate 1 g/ha): 0
Plant response rating (0 to 100), Crabgrass (crabgrass [5]; PREEMERGENCE, Rate 4 g/ha): 0
Plant response rating (0 to 100), Crabgrass (crabgrass [5]; Rate 16 g/ha, POSTEMERGENCE): 30
Plant response rating (0 to 100), Crabgrass (crabgrass [5]; Rate 16 g/ha, PREEMERGENCE): 10
Plant response rating, Barnyardgrass (barnyardgrass; POSTEMERGENCE, Rate 50 g/ha): 6
Plant response rating, Barnyardgrass (barnyardgrass; POSTEMERGENCE, Rate 200 g/ha): 8
Plant response rating, Barnyardgrass (barnyardgrass; PREEMERGENCE, Rate 50 g/ha): 0
Plant response rating, Barnyardgrass (barnyardgrass; Rate 200 g/ha, PREEMERGENCE): 1
Plant response rating, Giant foxtail (giant foxtail [6]; POSTEMERGENCE): 50
Plant response rating (0 to 100), Giant foxtail (giant foxtail [6]; POSTEMERGENCE, Rate 1 g/ha): 20
Plant response rating (0 to 100), Giant foxtail (giant foxtail [6]; POSTEMERGENCE, Rate 4 g/ha): 30
Plant response rating, Giant foxtail (giant foxtail [6]; PREEMERGENCE): 0
Plant response rating (0 to 100), Giant foxtail (giant foxtail [6]; PREEMERGENCE, Rate 1 g/ha): 0
Plant response rating (0 to 100), Giant foxtail (giant foxtail [6]; PREEMERGENCE, Rate 4 g/ha): 0
Plant response rating (0 to 100), Giant foxtail (giant foxtail [6]; Rate 16 g/ha, POSTEMERGENCE): 40
Plant response rating (0 to 100), Giant foxtail (giant foxtail [6]; Rate 16 g/ha, PREEMERGENCE): 0
Plant response rating, Rape (rape; POSTEMERGENCE, Rate 50 g/ha): 8
Plant response rating, Rape (rape; PREEMERGENCE, Rate 50 g/ha): 8
Plant response rating, Rape (rape; Rate 200 g/ha, POSTEMERGENCE): 10
Plant response rating, Rape (rape; Rate 200 g/ha, PREEMERGENCE): 8
Plant response rating, Wheat (wheat; POSTEMERGENCE, Rate 50 g/ha): 4
Plant response rating, Wheat (wheat; PREEMERGENCE, Rate 50 g/ha): 0
Plant response rating, Wheat (wheat; Rate 200 g/ha, POSTEMERGENCE): 6
Plant response rating, Wheat (wheat; Rate 200 g/ha, PREEMERGENCE): 2
Plant response rating, Wild oat (wild oat; [11]): 50
Plant response rating (0 to 100), Wild oat (wild oat; POSTEMERGENCE, Rate 1 g/ha): 0
Plant response rating (0 to 100), Wild oat (wild oat; POSTEMERGENCE, Rate 4 g/ha): 10
Plant response rating (0 to 100), Wild oat (wild oat; PREEMERGENCE, Rate 1 g/ha): 0
Plant response rating (0 to 100), Wild oat (wild oat; PREEMERGENCE, Rate 4 g/ha): 0
Plant response rating (0 to 100), Wild oat (wild oat; Rate 16 g/ha, POSTEMERGENCE): 30
Plant response rating (0 to 100), Wild oat (wild oat; Rate 16 g/ha, PREEMERGENCE): 0
